Source: publication PMC10008561 (Nature Communications, 2023)
Where “and” joins values, the source holds several entries; their conditions need not be identical. Equal entries are not always repeated.

Tests used:
KOR = test: Bias factor, Gz vs β-arrestin2 (BRET), U50,488 as reference; type: cell-based, human
human KOR (Gi2) [1] = biological target: T1, human KOR (Gi2) (Homo sapiens, UniProt P41145, Y139L); test: cell-based
T1 construct: expressed in transfected cells; host or cells: HEK293T

human KOR (Gi2) [2] = biological target: T2, human KOR (Gi2) (Homo sapiens, UniProt P41145, F283A); test: cell-based
T2 construct: expressed in transfected cells; host or cells: HEK293T
T2 sequence (P41145 whole entry F283A): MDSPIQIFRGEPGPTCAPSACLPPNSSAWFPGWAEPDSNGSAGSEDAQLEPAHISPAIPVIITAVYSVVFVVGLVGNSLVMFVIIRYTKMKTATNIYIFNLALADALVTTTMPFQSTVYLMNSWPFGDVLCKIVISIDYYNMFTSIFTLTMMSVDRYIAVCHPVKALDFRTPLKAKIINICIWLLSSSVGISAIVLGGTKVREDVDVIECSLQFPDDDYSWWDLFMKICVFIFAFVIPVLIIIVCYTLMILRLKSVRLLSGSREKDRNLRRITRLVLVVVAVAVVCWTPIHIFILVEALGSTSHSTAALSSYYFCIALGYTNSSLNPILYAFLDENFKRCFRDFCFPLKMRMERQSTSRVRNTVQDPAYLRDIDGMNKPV

human KOR (Gi2) [3] = biological target: T3, human KOR (Gi2) (Homo sapiens, UniProt P41145, D105A); test: cell-based; settings: HEK-293T
T3 construct: expressed in transfected cells; host or cells: HEK293T
T3 sequence (P41145 whole entry D105A): as the sequence (P41145 whole entry F283A) above, with D105A, A283F counted along it

human KOR (Gi2) [4] = biological target: T4, human KOR (Gi2) (Homo sapiens, UniProt P41145, K200A); test: cell-based
T4 construct: expressed in transfected cells; host or cells: HEK293T
T4 sequence (P41145 whole entry K200A): as the sequence (P41145 whole entry F283A) above, with K200A, A283F counted along it

human KOR (Gi2) [5] = biological target: T5, human KOR (Gi2) (Homo sapiens, UniProt P41145, E297A); test: cell-based
T5 construct: expressed in transfected cells; host or cells: HEK293T
T5 sequence (P41145 whole entry E297A): as the sequence (P41145 whole entry F283A) above, with A283F, E297A counted along it

human KOR (Gi2) [6] = biological target: T6, human KOR (Gi2) (Homo sapiens, UniProt P41145, T94V); test: cell-based
T6 construct: expressed in transfected cells; host or cells: HEK293T
T6 sequence (P41145 whole entry T94V): as the sequence (P41145 whole entry F283A) above, with T94V, A283F counted along it

human KOR (Gi2) [7] = biological target: T7, human KOR (Gi2) (Homo sapiens, UniProt P41145, F114L); test: cell-based
T7 construct: expressed in transfected cells; host or cells: HEK293T
T7 sequence (P41145 whole entry F114L): as the sequence (P41145 whole entry F283A) above, with F114L, A283F counted along it

human KOR (Gi2) [8] = biological target: T8, human KOR (Gi2) (Homo sapiens, UniProt P41145, N141A); test: cell-based
T8 construct: expressed in transfected cells; host or cells: HEK293T
T8 sequence (P41145 whole entry N141A): as the sequence (P41145 whole entry F283A) above, with N141A, A283F counted along it

human KOR (Gi2) [9] = biological target: T9, human KOR (Gi2) (Homo sapiens, UniProt P41145, R271A); test: cell-based
T9 construct: expressed in transfected cells; host or cells: HEK293T
T9 sequence (P41145 whole entry R271A): as the sequence (P41145 whole entry F283A) above, with R271A, A283F counted along it

human KOR (Gi2) [10] = biological target: T10, human KOR (Gi2) (Homo sapiens, UniProt P41145, K227A); test: cell-based
T10 construct: expressed in transfected cells; host or cells: HEK293T
T10 sequence (P41145 whole entry K227A): as the sequence (P41145 whole entry F283A) above, with K227A, A283F counted along it

human KOR (Gi2) [11] = biological target: T11, human KOR (Gi2) (Homo sapiens, UniProt P41145, R257A); test: cell-based
T11 construct: expressed in transfected cells; host or cells: HEK293T
T11 sequence (P41145 whole entry R257A): as the sequence (P41145 whole entry F283A) above, with R257A, A283F counted along it

human KOR (Gi2) [12] = biological target: T12, human KOR (Gi2) (Homo sapiens, UniProt P41145, N326A); test: cell-based
T12 construct: expressed in transfected cells; host or cells: HEK293T
T12 sequence (P41145 whole entry N326A): as the sequence (P41145 whole entry F283A) above, with A283F, N326A counted along it

human KOR (Gi2) [13] = biological target: T13, human KOR (Gi2) (Homo sapiens, UniProt P41145, R170A); test: cell-based; settings: HEK-293T
T13 construct: expressed in transfected cells; host or cells: HEK293T
T13 sequence (P41145 whole entry R170A): as the sequence (P41145 whole entry F283A) above, with R170A, A283F counted along it

human KOR (Gi2) [14] = biological target: T14, human KOR (Gi2) (Homo sapiens, UniProt P41145); test: cell-based
T14 construct: expressed in transfected cells; host or cells: HEK293T
T14 sequence (P41145 whole entry): as the sequence (P41145 whole entry F283A) above, with A283F counted along it

human KOR (Gi2) [15] = biological target: T15, human KOR (Gi2) (Homo sapiens, UniProt P41145, D155A); test: cell-based
T15 construct: expressed in transfected cells; host or cells: HEK293T
T15 sequence (P41145 whole entry D155A): as the sequence (P41145 whole entry F283A) above, with D155A, A283F counted along it

human KOR (Gi2) [16] = biological target: T16, human KOR (Gi2) (Homo sapiens, UniProt P41145, G319L); test: cell-based
T16 construct: expressed in transfected cells; host or cells: HEK293T
T16 sequence (P41145 whole entry G319L): as the sequence (P41145 whole entry F283A) above, with A283F, G319L counted along it

human KOR (Gi2) [17] = biological target: T17, human KOR (Gi2) (Homo sapiens, UniProt P41145, D266A); test: cell-based
T17 construct: expressed in transfected cells; host or cells: HEK293T
T17 sequence (P41145 whole entry D266A): as the sequence (P41145 whole entry F283A) above, with D266A, A283F counted along it

human KOR (Gi2) [18] = biological target: T18, human KOR (Gi2) (Homo sapiens, UniProt P41145, D334A); test: cell-based
T18 construct: expressed in transfected cells; host or cells: HEK293T
T18 sequence (P41145 whole entry D334A): as the sequence (P41145 whole entry F283A) above, with A283F, D334A counted along it

human KOR (Gi2) [19] = biological target: T19, human KOR (Gi2) (Homo sapiens, UniProt P41145, Q115N); test: cell-based
T19 construct: expressed in transfected cells; host or cells: HEK293T
T19 sequence (P41145 whole entry Q115N): as the sequence (P41145 whole entry F283A) above, with Q115N, A283F counted along it

human KOR (Gi2) [20] = biological target: T20, human KOR (Gi2) (Homo sapiens, UniProt P41145, L253A); test: cell-based
T20 construct: expressed in transfected cells; host or cells: HEK293T
T20 sequence (P41145 whole entry L253A): as the sequence (P41145 whole entry F283A) above, with L253A, A283F counted along it

human KOR (Gi2) [21] = biological target: T21, human KOR (Gi2) (Homo sapiens, UniProt P41145, Y320L); test: cell-based
T21 construct: expressed in transfected cells; host or cells: HEK293T
T21 sequence (P41145 whole entry Y320L): as the sequence (P41145 whole entry F283A) above, with A283F, Y320L counted along it

human KOR (Gi1) [22] = biological target: T22, human KOR (Gi1) (Homo sapiens, UniProt P41145, D105A); test: cell-based; settings: HEK-293T
T22 construct: expressed in transfected cells; host or cells: HEK293T
T22 sequence (P41145 whole entry D105A): as the sequence (P41145 whole entry F283A) above, with D105A, A283F counted along it

human KOR (Gi1) [23] = biological target: T23, human KOR (Gi1) (Homo sapiens, UniProt P41145, N326A); test: cell-based; settings: HEK-293T
T23 construct: expressed in transfected cells; host or cells: HEK293T
T23 sequence (P41145 whole entry N326A): as the sequence (P41145 whole entry F283A) above, with A283F, N326A counted along it

human KOR (Gi1) [24] = biological target: T24, human KOR (Gi1) (Homo sapiens, UniProt P41145, Q115N); test: cell-based; settings: HEK-293T
T24 construct: expressed in transfected cells; host or cells: HEK293T
T24 sequence (P41145 whole entry Q115N): as the sequence (P41145 whole entry F283A) above, with Q115N, A283F counted along it

human KOR (Gi1) [25] = biological target: T25, human KOR (Gi1) (Homo sapiens, UniProt P41145, R274A); test: cell-based; settings: HEK-293T
T25 construct: expressed in transfected cells; host or cells: HEK293T
T25 sequence (P41145 whole entry R274A): as the sequence (P41145 whole entry F283A) above, with R274A, A283F counted along it

human KOR (Gi1) [26] = biological target: T26, human KOR (Gi1) (Homo sapiens, UniProt P41145, R170A); test: cell-based; settings: HEK-293T
T26 construct: expressed in transfected cells; host or cells: HEK293T
T26 sequence (P41145 whole entry R170A): as the sequence (P41145 whole entry F283A) above, with R170A, A283F counted along it

human KOR (Gi1) [27] = biological target: T27, human KOR (Gi1) (Homo sapiens, UniProt P41145, D266A); test: cell-based; settings: HEK-293T
T27 construct: expressed in transfected cells; host or cells: HEK293T
T27 sequence (P41145 whole entry D266A): as the sequence (P41145 whole entry F283A) above, with D266A, A283F counted along it

human KOR (Gi1) [28] = biological target: T28, human KOR (Gi1) (Homo sapiens, UniProt P41145, Y320L); test: cell-based; settings: HEK-293T
T28 construct: expressed in transfected cells; host or cells: HEK293T
T28 sequence (P41145 whole entry Y320L): as the sequence (P41145 whole entry F283A) above, with A283F, Y320L counted along it

human KOR (Gi1) [29] = biological target: T29, human KOR (Gi1) (Homo sapiens, UniProt P41145, F114L); test: cell-based; settings: HEK-293T
T29 construct: expressed in transfected cells; host or cells: HEK293T
T29 sequence (P41145 whole entry F114L): as the sequence (P41145 whole entry F283A) above, with F114L, A283F counted along it

human KOR (Gi1) [30] = biological target: T30, human KOR (Gi1) (Homo sapiens, UniProt P41145, R257A); test: cell-based; settings: HEK-293T
T30 construct: expressed in transfected cells; host or cells: HEK293T
T30 sequence (P41145 whole entry R257A): as the sequence (P41145 whole entry F283A) above, with R257A, A283F counted along it

human KOR (Gi1) [31] = biological target: T31, human KOR (Gi1) (Homo sapiens, UniProt P41145, K200A); test: cell-based; settings: HEK-293T
T31 construct: expressed in transfected cells; host or cells: HEK293T
T31 sequence (P41145 whole entry K200A): as the sequence (P41145 whole entry F283A) above, with K200A, A283F counted along it

human KOR (Gi1) [32] = biological target: T32, human KOR (Gi1) (Homo sapiens, UniProt P41145, L253A); test: cell-based; settings: HEK-293T
T32 construct: expressed in transfected cells; host or cells: HEK293T
T32 sequence (P41145 whole entry L253A): as the sequence (P41145 whole entry F283A) above, with L253A, A283F counted along it

human KOR (Gi1) [33] = biological target: T33, human KOR (Gi1) (Homo sapiens, UniProt P41145, N141A); test: cell-based; settings: HEK-293T
T33 construct: expressed in transfected cells; host or cells: HEK293T
T33 sequence (P41145 whole entry N141A): as the sequence (P41145 whole entry F283A) above, with N141A, A283F counted along it

human KOR (Gi1) [34] = biological target: T34, human KOR (Gi1) (Homo sapiens, UniProt P41145, R271A); test: cell-based; settings: HEK-293T
T34 construct: expressed in transfected cells; host or cells: HEK293T
T34 sequence (P41145 whole entry R271A): as the sequence (P41145 whole entry F283A) above, with R271A, A283F counted along it

human KOR (Gi1) [35] = biological target: T35, human KOR (Gi1) (Homo sapiens, UniProt P41145, F283A); test: cell-based; settings: HEK-293T
T35 construct: expressed in transfected cells; host or cells: HEK293T
T35 sequence (P41145 whole entry F283A): as the sequence (P41145 whole entry F283A) above

T1 sequence (P41145 whole entry Y139L): as the sequence (P41145 whole entry F283A) above, with Y139L, A283F counted along it

CN(C(=O)/C=C/c1ccoc1)[C@@H]1CC[C@@]2(O)[C@H]3Cc4ccc(O)c5c4[C@@]2(CCN3CC2CC2)[C@H]1O5 [Nalfurafine, nalfurafine]
bias factor towards Gz protein (KOR): 4.8 | FC vs wild type (human KOR (Gi2) [1]): 1 | FC vs wild type (human KOR (Gi2) [2]): 7 | Emax (human KOR (Gi2) [2]; HEK-293T): 79% | Emax (human KOR (Gi2) [3]): 96.1% | FC vs wild type (human KOR (Gi2) [4]): 2 | Emax (human KOR (Gi2) [4]; HEK-293T): 104% | FC vs wild type (human KOR (Gi2) [5]): 2 | Emax (human KOR (Gi2) [5]; HEK-293T): 106% | FC vs wild type (human KOR (Gi2) [6]): 2 | Emax (human KOR (Gi2) [6]; HEK-293T): 95.8% | FC vs wild type (human KOR (Gi2) [7]): 18 | Emax (human KOR (Gi2) [7]; HEK-293T): 56.9% | FC vs wild type (human KOR (Gi2) [8]): 7 | Emax (human KOR (Gi2) [8]; HEK-293T): 103% | FC vs wild type (human KOR (Gi2) [9]): 112 | Emax (human KOR (Gi2) [9]; HEK-293T): 106% | FC vs wild type (human KOR (Gi2) [10]): 1 | Emax (human KOR (Gi2) [10]; HEK-293T): 101% | FC vs wild type (human KOR (Gi2) [11]): 100 | Emax (human KOR (Gi2) [11]; HEK-293T): 104% | FC vs wild type (human KOR (Gi2) [12]): 3 | Emax (human KOR (Gi2) [12]; HEK-293T): 101% | Emax (human KOR (Gi2) [13]): 57.6% | Emax% (human KOR (Gi2) [14]): 101% | FC vs wild type (human KOR (Gi2) [14]): 1 | Emax (human KOR (Gi2) [14]; HEK-293T): 101% | FC vs wild type (human KOR (Gi2) [15]): 20 and < 10 | Emax (human KOR (Gi2) [15]; HEK-293T): 82% | FC vs wild type (human KOR (Gi2) [16]): 17 | Emax (human KOR (Gi2) [16]; HEK-293T): 116% | FC vs wild type (human KOR (Gi2) [17]): 110 | Emax (human KOR (Gi2) [17]; HEK-293T): 107% | FC vs wild type (human KOR (Gi2) [18]): 269 | Emax (human KOR (Gi2) [18]; HEK-293T): 86.1% | FC vs wild type (human KOR (Gi2) [19]): 24 | Emax (human KOR (Gi2) [19]; HEK-293T): 60% | FC vs wild type (human KOR (Gi2) [20]): 87 and 100 | Emax (human KOR (Gi2) [20]; HEK-293T): 105% | FC vs wild type (human KOR (Gi2) [21]): 186 | Emax (human KOR (Gi2) [21]; HEK-293T): 89.3% | Emax (human KOR (Gi1) [22]): 94.3% | Emax (human KOR (Gi1) [23]): 108% | Emax (human KOR (Gi1) [24]): 77.3% | Emax (human KOR (Gi1) [25]): 100% | Emax (human KOR (Gi1) [26]): 58.7% | Emax (human KOR (Gi1) [27]): 106% | Emax (human KOR (Gi1) [28]): 76.3% | Emax (human KOR (Gi1) [29]): 65.5% | Emax (human KOR (Gi1) [30]): 99.5% | Emax (human KOR (Gi1) [31]): 96.1% | Emax (human KOR (Gi1) [32]): 106% | Emax (human KOR (Gi1) [33]): 101% | Emax (human KOR (Gi1) [34]): 105% | Emax (human KOR (Gi1) [35]): 77.6%
